In ChEMBL document CHEMBL1201862, “PubChem BioAssay data set” (2004):
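The compound was tested at five concentrations on cells cultured in 96-well plates, with a 48-hour exposure period. Here, GI50 denotes the concentration required for 50% inhibition of growth.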 Active and inactive are the calls of the source. Cut-off read from the data, not from the text of the source: active = GI50 up to about 1.1 µM and inactive = higher.

How the values were obtained:
Assay in all cases: inhibition of tumour cell growth, NCI panel, 48 h
SNB-19 = tested on: SNB-19
M19-MEL = tested on: M19-MEL
K562 = tested on: K562
NCI-H522 = tested on: NCI-H522
OVCAR-4 = tested on: OVCAR-4
HCT-116 = tested on: HCT-116
SR = tested on: SR
RPMI-8226 = tested on: RPMI-8226
HOP-18 = tested on: HOP-18
M14 = tested on: M14
NCI-H23 = tested on: NCI-H23
SK-OV-3 = tested on: SK-OV-3
OVCAR-8 = tested on: OVCAR-8
UACC-257 = tested on: UACC-257
KM12 = tested on: KM12
SF-539 = tested on: SF-539
UACC-62 = tested on: UACC-62
SK-MEL-2 = tested on: SK-MEL-2
HCT-15 = tested on: HCT-15
786-0 = tested on: 786-0
IGROV-1 = tested on: IGROV-1
SF-268 = tested on: SF-268
OVCAR-3 = tested on: OVCAR-3
Malme-3M = tested on: Malme-3M
HCC 2998 = tested on: HCC 2998
NCI-H460 = tested on: NCI-H460
SNB-78 = tested on: SNB-78
SF-295 = tested on: SF-295
A498 = tested on: A498
HT-29 = tested on: HT-29
EKVX = tested on: EKVX
COLO 205 = tested on: COLO 205
KM-20L2 = tested on: KM-20L2
HOP-92 = tested on: HOP-92
NCI-H226 = tested on: NCI-H226
ACHN = tested on: ACHN
OVCAR-5 = tested on: OVCAR-5
TK-10 = tested on: TK-10
XF498 = tested on: XF498
DMS-114 = tested on: DMS-114
DLD-1 = tested on: DLD-1
SK-MEL-5 = tested on: SK-MEL-5
RXF 393 = tested on: RXF 393
SK-MEL-28 = tested on: SK-MEL-28
LXFL 529 = tested on: LXFL 529
UO-31 = tested on: UO-31
U-251 = tested on: U-251
SN12C = tested on: SN12C
CAKI-1 = tested on: CAKI-1
SNB-75 = tested on: SNB-75
HOP-62 = tested on: HOP-62
MOLT-4 = tested on: MOLT-4
HL-60 = tested on: HL-60
A549 = tested on: A549
CCRF-CEM = tested on: CCRF-CEM
LOX IMVI = tested on: LOX IMVI

## CCCCOC(=O)/C(CC(=O)C=C(C)C)=N\NS(=O)(=O)c1ccc(C)cc1
SNB-19
  GI50: > 100 µM (inactive)
M19-MEL
  GI50: > 100 µM (inactive)
K562
  GI50: > 100 µM (inactive)
NCI-H522
  GI50: 41.8 µM (inactive)
OVCAR-4
  GI50: > 100 µM (inactive)
HCT-116
  GI50: > 100 µM (inactive)
SR
  GI50: 27.7 µM (inactive)
RPMI-8226
  GI50: > 100 µM (inactive)
HOP-18
  GI50: > 100 µM (inactive)
M14
  GI50: > 100 µM (inactive)
NCI-H23
  GI50: > 100 µM (inactive)
SK-OV-3
  GI50: > 100 µM (inactive)
OVCAR-8
  GI50: > 100 µM (inactive)
UACC-257
  GI50: > 100 µM (inactive)
KM12
  GI50: > 100 µM (inactive)
SF-539
  GI50: > 100 µM (inactive)
UACC-62
  GI50: > 100 µM (inactive)
SK-MEL-2
  GI50: > 100 µM (inactive)
HCT-15
  GI50: 62.4 µM
786-0
  GI50: > 100 µM (inactive)
IGROV-1
  GI50: > 100 µM (inactive)
SF-268
  GI50: > 100 µM (inactive)
OVCAR-3
  GI50: > 100 µM (inactive)
Malme-3M
  GI50: > 100 µM (inactive)
HCC 2998
  GI50: > 100 µM (inactive)
NCI-H460
  GI50: > 100 µM (inactive)
SNB-78
  GI50: > 100 µM (inactive)
SF-295
  GI50: > 100 µM (inactive)
A498
  GI50: > 100 µM (inactive)
HT-29
  GI50: > 100 µM (inactive)
EKVX
  GI50: > 100 µM (inactive)
COLO 205
  GI50: 46.1 µM (inactive)
KM-20L2
  GI50: > 100 µM (inactive)
HOP-92
  GI50: > 100 µM (inactive)
NCI-H226
  GI50: > 100 µM (inactive)
ACHN
  GI50: > 100 µM (inactive)
OVCAR-5
  GI50: > 100 µM (inactive)
TK-10
  GI50: > 100 µM (inactive)
XF498
  GI50: > 100 µM (inactive)
DMS-114
  GI50: 21.1 µM (inactive)
DLD-1
  GI50: 65.5 µM (inactive)
SK-MEL-5
  GI50: > 100 µM (inactive)
RXF 393
  GI50: > 100 µM (inactive)
SK-MEL-28
  GI50: > 100 µM (inactive)
LXFL 529
  GI50: > 100 µM (inactive)
UO-31
  GI50: > 100 µM (inactive)
U-251
  GI50: > 100 µM (inactive)
SN12C
  GI50: > 100 µM (inactive)
CAKI-1
  GI50: > 100 µM (inactive)
SNB-75
  GI50: > 100 µM (inactive)
HOP-62
  GI50: > 100 µM (inactive)
MOLT-4
  GI50: > 100 µM (inactive)
HL-60
  GI50: > 100 µM (inactive)
A549
  GI50: > 100 µM (inactive)
CCRF-CEM
  GI50: > 100 µM (inactive)
LOX IMVI
  GI50: 71.3 µM (inactive)
